Data from US20240252488A1 (KOREA RESEARCH INSTITUTE OF CHEMICAL TECHNOLOGY, priority 2020, published 2024).

Experiments:
[1] = tested on: FADD−/− Jurkat cells; experiment: Necroptosis inhibition assay, TNF-α-induced necroptosis (CellTiter-Glo 2.0); assay type: cell-based, human; details: TNF-α 15 ng/mL; for Necroptosis inhibition assay (Rescue %) 1 μM: compound 1 μM; for Necroptosis inhibition assay (Rescue %) 10 μM: compound 10 μM
How it was run: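 FADD−/− Jurkat cells preincubated 30 min at room temperature with compound at 0.1, 1 and 10 μM final, then stimulated with TNF-α (15 ng/mL final) for 20–24 h at 37 °C, 5% CO2. Viability read as ATP luminescence; cytotoxicity and necroptosis inhibition rate calculated from luminescence values.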

[2] = molecular target: T1, MLKL (Homo sapiens, UniProt Q8NB16); experiment: MLKL degradation assay in HepG2 cell line (western blot); assay type: cell-based; parameters: endogenous in cells; host or cells: HepG2 or HaCaT; details: cell line not given; for Degradation assay (Degradation %) 1 μM: compound 1 μM; for Degradation assay (Degradation %) 10 μM: compound 10 μM
T1 sequence (Q8NB16 1-471): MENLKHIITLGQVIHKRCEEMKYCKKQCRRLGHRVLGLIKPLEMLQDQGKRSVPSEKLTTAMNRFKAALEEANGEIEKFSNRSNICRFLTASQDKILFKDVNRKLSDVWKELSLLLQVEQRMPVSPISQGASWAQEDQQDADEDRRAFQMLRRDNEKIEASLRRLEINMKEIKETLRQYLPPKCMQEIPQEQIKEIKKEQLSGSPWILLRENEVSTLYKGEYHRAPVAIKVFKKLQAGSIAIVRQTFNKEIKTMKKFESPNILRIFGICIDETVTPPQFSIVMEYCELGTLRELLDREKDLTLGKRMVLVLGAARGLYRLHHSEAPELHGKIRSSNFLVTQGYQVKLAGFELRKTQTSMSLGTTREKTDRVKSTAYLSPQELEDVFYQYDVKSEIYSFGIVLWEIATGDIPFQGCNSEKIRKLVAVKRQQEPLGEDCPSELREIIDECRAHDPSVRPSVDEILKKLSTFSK
How it was run: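 HepG2 cells were treated 20-24 h at 37 °C with compound at 1 or 10 μM final. RIPA lysates were normalized by BCA, and 10-15 μg protein per lane was resolved by SDS-PAGE. MLKL was detected by western blot with chemiluminescence.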

[3] = molecular target: T1, MLKL; experiment: Measurement of binding affinity with MLKL receptor (competitive binding assay, Kd); parameters: made in house; host or cells: HEK 293 cell line (T7 phage in E. coli BL21-derived host is also described)
How it was run: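 qPCR of MLKL eluted from liganded beads served as the read-out, from which Kd was derived. The protein was made in HEK 293 cells with a DNA tag, and test compounds competed with the bead-bound ligand at 0.9% final DMSO.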

Row | SMILES | Degradation assay (Degradation %) 1 μM [2] | Degradation assay (Degradation %) 10 μM [2] | Kd [3] | Necroptosis inhibition assay (Rescue %) 1 μM [1] | Necroptosis inhibition assay (Rescue %) 10 μM [1]
1 | Nc1ncc(-c2cnn(C3CCN(CC4CCN(C(=O)C5CCN(c6cccc7c6C(=O)N(C6CCC(=O)NC6=O)C7=O)CC5)CC4)CC3)c2)nc1C(=O)O[C@@H](C(=O)Nc1ccc(F)cc1)c1ccccc1 (stereo partly drawn) [TDH-146, (R)-2-((4-fluorophenyl)amino)-2-oxo-1-phenylethyl 3-amino-6-(1-(1-((1-(1-(2-(2,6-dioxopiperidin-3-yl)-1,3-dioxoisoindolin-4-yl)piperidine-4-carbonyl)piperidin-4-yl)methyl)piperidin-4-yl)-1H-pyrazol-4-yl)pyrazine-2-carboxylate] | 65.04% | 60.65% | 5.4 nM | 42.2% | 9.61%
2 | Nc1ncc(-c2cnn(C3CCN(CC4CCN(C(=O)C5CCN(c6ccc7c(c6)C(=O)N(C6CCC(=O)NC6=O)C7=O)CC5)CC4)CC3)c2)nc1C(=O)O[C@@H](C(=O)Nc1ccc(F)cc1)c1ccccc1 (stereo partly drawn) [TDH-147, (R)-2-((4-fluorophenyl)amino)-2-oxo-1-phenylethyl 3-amino-6-(1-(1-((1-(1-(2-(2,6-dioxopiperidin-3-yl)-1,3-dioxoisoindolin-5-yl)piperidine-4-carbonyl)piperidin-4-yl)methyl)piperidin-4-yl)-1H-pyrazol-4-yl)pyrazine-2-carboxylate] | 38.91% | 60.57% | 24 nM | 84.3% | 45.37%
3 | Nc1ncc(-c2cnn(C3CCN(CC4CCN(C(=O)COc5cccc6c5C(=O)N(C5CCC(=O)NC5=O)C6=O)CC4)CC3)c2)nc1C(=O)O[C@@H](C(=O)Nc1ccc(F)cc1)c1ccccc1 (stereo partly drawn) [TDH-148, (R)-2-((4-fluorophenyl)amino)-2-oxo-1-phenylethyl 3-amino-6-(1-(1-((1-(2-((2-(2,6-dioxopiperidin-3-yl)-1,3-dioxoisoindolin-4-yl)oxy)acetyl)piperidin-4-yl)methyl)piperidin-4-yl)-1H-pyrazol-4-yl)pyrazine-2-carboxylate] | 46.29% | 48.24% | 1.4 nM | 54.25% | 15.48%
4 | Nc1ncc(-c2cnn(C3CCN(CC4CCN(c5cccc6c5C(=O)N(C5CCC(=O)NC5=O)C6=O)CC4)CC3)c2)nc1C(=O)O[C@@H](C(=O)Nc1ccc(F)cc1)c1ccccc1 (stereo partly drawn) [TDH-149, (R)-2-((4-fluorophenyl)amino)-2-oxo-1-phenylethyl 3-amino-6-(1-(1-((1-(2-(2,6-dioxopiperidin-3-yl)-1,3-dioxoisoindolin-4-yl)piperidin-4-yl)methyl)piperidin-4-yl)-1H-pyrazol-4-yl)pyrazine-2-carboxylate] | 48.51% | 77.36% | 40 nM | 82.1% | 55.19%
5 | Nc1ncc(-c2cnn(C3CCN(CC4CCN(C(=O)C5CCN(c6ccc7nnn(C8CCC(=O)NC8=O)c(=O)c7c6)CC5)CC4)CC3)c2)nc1C(=O)O[C@@H](C(=O)Nc1ccc(F)cc1)c1ccccc1 (stereo partly drawn) [TDH-151, (R)-2-((4-fluorophenyl)amino)-2-oxo-1-phenylethyl 3-amino-6-(1-(1-((1-(1-(3-(2,6-dioxopiperidin-3-yl)-4-oxo-3,4-dihydrobenzo[d][1,2,3]triazin-6-yl)piperidine-4-carbonyl)piperidin-4-yl)methyl)piperidin-4-yl)-1H-pyrazol-4-yl)pyrazine-2-carboxylate] | 84.58% | 77.74% | 12 nM | 85.85% | 60.12%
6 | Nc1ncc(-c2cnn(C3CCN(CC4CCN(C(=O)CNc5ccc6nnn(C7CCC(=O)NC7=O)c(=O)c6c5)CC4)CC3)c2)nc1C(=O)O[C@@H](C(=O)Nc1ccc(F)cc1)c1ccccc1 (stereo partly drawn) [TDH-152, (R)-2-((4-fluorophenyl)amino)-2-oxo-1-phenylethyl 3-amino-6-(1-(1-((1-((3-(2,6-dioxopiperidin-3-yl)-4-oxo-3,4-dihydrobenzo[d][1,2,3]triazin-6-yl)glycyl)piperidin-4-yl)methyl)piperidin-4-yl)-1H-pyrazol-4-yl)pyrazine-2-carboxylate] | 51.96% | 35.05% | 2.7 nM | 63.2% | 41.21%

The next lines start with results.

Row | Degradation assay (Degradation %) 1 μM [2] | Degradation assay (Degradation %) 10 μM [2] | Kd [3] | SMILES | Necroptosis inhibition assay (Rescue %) 1 μM [1] | Necroptosis inhibition assay (Rescue %) 10 μM [1]
7 | 19.42% | 53.09% | 4.4 nM | Nc1ncc(-c2cnn(C3CCN(CCOCCOCCOCCNC(=O)C4CN(c5ccc6c(c5)C(=O)N(C5CCC(=O)NC5=O)C6=O)C4)CC3)c2)nc1C(=O)O[C@@H](C(=O)Nc1ccc(F)cc1)c1ccccc1 (stereo partly drawn) [TDH-142, (R)-2-((4-fluorophenyl)amino)-2-oxo-1-phenylethyl 3-amino-6-(1-(1-(1-(1-(2-(2,6-dioxopiperidin-3-yl)-1,3-dioxoisoindolin-5-yl)azetidin-3-yl)-1-oxo-5,8,11-trioxa-2-azatridecan-13-yl)piperidin-4-yl)-1H-pyrazol-4-yl)pyrazine-2-carboxylate] | 12.69% | 50.51%
8 | 64% | 85.29% | 4.5 nM | Nc1ncc(-c2cnn(C3CCN(CCOCCOCCOCCNC(=O)CNc4cccc5c4C(=O)N(C4CCC(=O)NC4=O)C5=O)CC3)c2)nc1C(=O)O[C@@H](C(=O)Nc1ccc(F)cc1)c1ccccc1 (stereo partly drawn) [TDH-143, (R)-2-((4-fluorophenyl)amino)-2-oxo-1-phenylethyl 3-amino-6-(1-(1-(1-((2-(2,6-dioxopiperidin-3-yl)-1,3-dioxoisoindolin-4-yl)amino)-2-oxo-6,9,12-trioxa-3-azatetradecan-14-yl)piperidin-4-yl)-1H-pyrazol-4-yl)pyrazine-2-carboxylate] | 20.58% | 64.35%
9 | 58.79% | 86.28% | 2.5 nM | Nc1ncc(-c2cnn(C3CCN(CCOCCOCCOCCNC(=O)CNc4ccc5c(c4)C(=O)N(C4CCC(=O)NC4=O)C5=O)CC3)c2)nc1C(=O)O[C@@H](C(=O)Nc1ccc(F)cc1)c1ccccc1 (stereo partly drawn) [TDH-144, (R)-2-((4-fluorophenyl)amino)-2-oxo-1-phenylethyl 3-amino-6-(1-(1-(1-((2-(2,6-dioxopiperidin-3-yl)-1,3-dioxoisoindolin-5-yl)amino)-2-oxo-6,9,12-trioxa-3-azatetradecan-14-yl)piperidin-4-yl)-1H-pyrazol-4-yl)pyrazine-2-carboxylate] | 15.23% | 68.71%
10 | 36.97% | 55.66% | 2.5 nM | Nc1ncc(-c2cnn(C3CCN(CC4CCN(C(=O)C5CN(c6ccc7c(c6)C(=O)N(C6CCC(=O)NC6=O)C7=O)C5)CC4)CC3)c2)nc1C(=O)O[C@@H](C(=O)Nc1ccc(F)cc1)c1ccccc1 (stereo partly drawn) [TDH-145, (R)-2-((4-fluorophenyl)amino)-2-oxo-1-phenylethyl 3-amino-6-(1-(1-((1-(1-(2-(2,6-dioxopiperidin-3-yl)-1,3-dioxoisoindolin-5-yl)azetidine-3-carbonyl)piperidin-4-yl)methyl)piperidin-4-yl)-1H-pyrazol-4-yl)pyrazine-2-carboxylate] | 51.47% | 40.41%
11 | 66.97% | 53.7% | 43 nM | Nc1ncc(-c2cnn(C3CCN(CC4CCN(c5ccc6c(c5)C(=O)N(C5CCC(=O)NC5=O)C6=O)CC4)CC3)c2)nc1C(=O)O[C@@H](C(=O)Nc1ccc(F)cc1)c1ccccc1 (stereo partly drawn) [TDH-150, (R)-2-((4-fluorophenyl)amino)-2-oxo-1-phenylethyl 3-amino-6-(1-(1-((1-(2-(2,6-dioxopiperidin-3-yl)-1,3-dioxoisoindolin-5-yl)piperidin-4-yl)methyl)piperidin-4-yl)-1H-pyrazol-4-yl)pyrazine-2-carboxylate] | 53.91% | 39.57%
